Experimental data published in PMC10046901, “Molecular Analysis of the Superior Efficacy of a Dual Epidermal Growth Factor Receptor (EGFR)-DNA-Targeting Combi-Molecule in Comparison with Its Putative Prodrugs 6-Mono-Alkylamino- and 6,6-Dialkylaminoquinazoline in a Human Osteosarcoma Xenograft Model” (Cells, 2023).

Legend:
U2-OS = test: cells; assay type: cell-based; conditions: Homo sapiens, U2OS, 120 h, read-out: IC50 growth inhibition
MNNG/HOS = test: cells; assay type: cell-based; conditions: 120 h, read-out: IC50 growth inhibition
Saos-2 = test: cells; assay type: cell-based, human; conditions: Homo sapiens, SAOS-2, 120 h, read-out: IC50 growth inhibition
KHOS/NP = test: cells; assay type: cell-based; conditions: Homo sapiens, 120 h, read-out: IC50 growth inhibition
MG-63 = test: cells; assay type: cell-based; conditions: Homo sapiens, MG-63, 120 h, read-out: IC50 growth inhibition
[1] = system: several other osteosarcoma cell lines; parameters: method as in PMID 23091447; conditions: concentrations of up to 20 μM; cited from earlier work

| Compound | IC50 (U2-OS) [µM] | IC50 (MNNG/HOS) [µM] | IC50 (Saos-2) [µM] | IC50 (KHOS/NP) [µM] | IC50 (MG-63) [µM] | effect on viability of osteosarcoma cell lines [1] |
| --- | --- | --- | --- | --- | --- | --- |
| O=C(O)CCCc1ccc(N(CCCl)CCCl)cc1 [Chlorambucil, chlorambucil, reference compound] | 9.59 ± 0.55 | 12.1 ± 1.01 | 7.53 ± 0.75 | 9.25 ± 1.35 | 13.1 ± 1.28 | – |
| COc1cc2ncnc(Nc3ccc(F)c(Cl)c3)c2cc1OCCCN1CCOCC1 [Gefitinib, gefitinib] | – | – | – | – | – | did not reduce the viability |
